Source: patent publication US10357477B2, “Anticancer compounds” (REGENTS OF THE UNIVERSITY OF MINNESOTA, priority 2016, dated 2019)

Columns and labels:
MIA PaCa-2 cells = assay: Cell viability assay (MTT) in MIA PaCa-2 cells; assay type: cell-based; conditions: Homo sapiens, antiproliferative activity, 72 h
Experimental: MIA PaCa-2 cells (CRL-1420, ATCC) were maintained in DMEM media supplemented with 10% FBS, 2.5% HS, 1% GlutaMAX, 1% sodium pyruvate, 100 U/mL penicillin, and 100 μg/mL streptomycin. Cell culture media and additives were purchased from Gibco. Cells were plated in 96-well plates at |1−2.5|×10^4 cells per well in the DMEM growth media. One microliter of a 2-fold serially diluted compound solution in DMSO (Sigma) starting at 20 mM (100 μM final concentration) was added to each well. The final volume in each well was 200 μL, yielding a final DMSO concentration of 0.5%. Control wells contained 0.5% DMSO (100% viability) or 25% DMSO (background) and all reactions were done in triplicate. The plate was incubated for 72 h at 37° C. in a 5% CO2/95% air humidified atmosphere.
Measurement of cell viability was carried out using a modified method of Mosmann based on 3-(4,5-dimethylthiazol-2-yl)-2,5-diphenyltetrazolium bromide (MTT, Sigma). MTT solution was prepared fresh at 1 mg/mL in serum-free and phenol red-free RPMI 1640 media. After 200 μL of MTT solution was added to each well, the plate was incubated as described above for 3 h. The MTT solution was removed, and the formazan crystals were solubilized with 200 μL of isopropanol. The plate was read on a SpectraMax i3 spectrophotometer (Molecular Devices) at 570 nm for formazan and 650 nm for background subtraction. EC50 values were calculated by fitting the data in GraphPad Prism software. EC50 values were determined in triplicate.

Panc-1 cells = assay: Cell viability assay (MTT) in Panc-1 cells; assay type: cell-based; conditions: Homo sapiens, antiproliferative activity, 72 h
Experimental: Panc-1 cells are maintained in RPMI 1640 (Invitrogen 11875) media supplemented with 10% FBS, 1% Penicillin/Streptomycin and 1% Glutamax-1. Cells were plated in 96-well plates at 25×10^4 cells/ml. After 24 hours, compounds were added at 9, 3× dilutions in triplicate from 100 uM final concentration in the appropriate growth media. Plates were incubated for 72 hours at 37° C. in a 5% CO2/95% air humidified atmosphere after which time the media was removed and MTT was added in RPMI phenol red free media. The MTT was removed after 3 hours and formazan crystals were solubilized with 200 μL of isopropanol. Plates were read on a Molecular Devices SpectraMax i3 spectrophotometer at 570 nm for formazan and 690 nm for background subtraction. EC50 values were calculated by fitting the data in GraphPad Prism software.

[1] = Plasma stability assay, mouse plasma; assay type: in vitro ADME; conditions: 37° C., 24 h
Experimental: (§1) The plasma stability assay was performed in triplicate by incubating a compound in normal mouse and human plasma at 37° C. At 0, 1, 3, 6, and 24 h, aliquots of the plasma mixture were taken and quenched with 3 volumes of acetonitrile containing an appropriate internal standard. The samples were then vortexed and centrifuged at 14,000 rpm for 5 min. The supernatants were collected and analyzed by LC-MS/MS to determine the remaining percentage at various time points.
(§2) Quantification and analysis of compounds in biological samples were carried out on an AB Sciex QTrap 5500 mass spectrometer coupled with an Agilent 1260 Infinity HPLC. The chromatographic separation of compounds was achieved using a Phenomenex Kinetex C18 column (50×2.1 mm, 2.6 μm), and MS/MS analysis was conducted using an ESI ion source with MRM detection. The MS/MS detection parameters including declustering potential (DP), entrance potential (EP), collision energy (CE), and collision cell exit potential (CXP) were optimized for each compound.

[2] = Microsomal stability assay, human liver microsomes; assay type: in vitro ADME; conditions: pH 7.4; human liver microsomes 0.5 mg/mL, 1 mM NADPH, 1 μM compound; read-out: Microsomal Stability t1/2 Human
Experimental: (§3) The in vitro microsomal stability assay was conducted in triplicate in mouse and human liver microsomal systems. In a typical incubation, a compound (typically 1 μM final concentration) was spiked into the reaction mixture containing 0.5 mg/mL of liver microsomal protein and 1 mM of NADPH in 0.1 M potassium phosphate buffer (pH 7.4) at 37° C. At various time points, 1 volume of reaction aliquot was taken and quenched with 3 volumes of acetonitrile with an appropriate internal standard. The samples were then vortexed and centrifuged at 14,000 rpm for 5 min. The supernatants were collected and analyzed by LC-MS/MS to determine the in vitro metabolic half-life (t1/2) and intrinsic clearance (CLint). Verapamil was used as a positive control.
as §2

[3] = Caco-2 permeability assay; assay type: in vitro ADME; conditions: human, pH 7.4
Experimental: Cell Culture. The human colon adenocarcinoma cell line Caco-2 was purchased from ATCC (American Type Culture Collection, Manassas, Va.), and was cultured in a humidified atmosphere of 5% CO2 at 37° C. Caco-2 cells were cultured in DMEM with 10% FBS, 1% NEAA, 1% GlutaMax and 1% penicillin and streptomycin solution. The culture medium was changed every other day during cell growth and differentiation. On achieving 80-90% confluence, the cells were rinsed with pre-warm DPBS (pH 7.4) and split using trypsin. The cells were then seeded on membranes of Millipore Millicell-24 cell culture device. The transepithelial electrical resistance (TEER) were assessed to reflect membrane integrity using a Millicells® ERS-2 (Millipore, USA). The Caco-2 cell monolayers were used for transport experiments on day 21 post-seeding with TEER values >500 Ω·cm2. Bidirectional Transport Experiments. Before the transport experiments, the cell monolayer was washed three times with HBSS. Then, the plates were incubated in fresh permeability assay buffer (HBSS containing 10 mM glucose and 20 mM HEPES, pH 7.4) at 37° C. The experiments were conducted by spiking test compounds to either the apical (AP, 0.4 mL) or basolateral side (BL, 0.8 mL), while the receiving chamber contained the corresponding volume of pre-warmed permeability assay buffer. Every experiment was repeated in duplicate, and the plates were incubated in an orbital shaker at 37° C., 50 rpm/min. To assess the drug transport, at the incubation time of 20, 40, 60 and 80 min, aliquot was removed and was immediately replenished with an equal volume of permeability assay buffer. The samples were then subjected to LC/MS/MS analysis. The apparent permeability coefficient was indicated by the absorption rate constant Papp. It could be calculated as PBA (measured in BL to AP direction) or PAB (measured in AP to BL direction), using the equation of Papp=(dQ/dt)/(A×C0). dQ/dt is the rate at which the compound appears in the receiver chamber (nmol/s), A is the surface area of the filter membrane (0.7 cm2) and C0 is the initial concentration in the donor chamber (μM). Efflux ratio (ER) was calculated by the equation of ER=PBA/PAB, where PBA is the Papp value measured in BL to AP direction, and PAB is the Papp value measured in AP to BL direction.

[4] = Microsomal stability assay, mouse liver microsomes; assay type: in vitro ADME; conditions: pH 7.4; mouse liver microsomes 0.5 mg/mL, 1 mM NADPH, 1 μM compound; read-out: Microsomal Stability t1/2 Mouse
Experimental: as §3, §2

[5] = Plasma stability assay, human plasma; assay type: in vitro ADME; conditions: 37° C., 24 h
Experimental: as §1, §2

| EC50 (MIA PaCa-2 cells) | EC50 (Panc-1 cells) | Plasma Stability (% remaining, 6 h/24 h) Mouse [1] | half-life at 1 μM [2] | Papp A→B at 80 min ([3]; apical to basolateral) | Papp B→A at 80 min ([3]; basolateral to apical) | half-life at 1 μM [4] | Plasma Stability (% remaining, 6 h/24 h) Human [5] | Structure (SMILES) |
| --- | --- | --- | --- | --- | --- | --- | --- | --- |
| 4.2 µM | 2 µM | – | – | – | – | – | – | CNC(=O)c1cccc(Cn2nc(C)c(NC(=O)c3ccc(COc4ccc(Cl)cc4)cc3)c2C)c1 [Compound D5c, 3-((4-(4-((4-Chlorophenoxy)methyl)benzamido)-3,5-dimethyl-1H-pyrazol-1-yl)methyl)-N-methylbenzamide] |
| 5.6 µM | 3 µM | – | – | – | – | – | – | CNC(=O)c1cccc(Cn2nc(C)c(NC(=O)c3ccc(COc4ccccc4F)cc3)c2C)c1 [Compound D6a, 3-((4-(4-((2-Fluorophenoxy)methyl)benzamido)-3,5-dimethyl-1H-pyrazol-1-yl)methyl)-N-methylbenzamide] |
| 7.7 µM | 0.21 µM | – | – | – | – | – | – | CNC(=O)c1cccc(Cn2nc(C)c(NC(=O)c3ccc(COc4cccc(F)c4)cc3)c2C)c1 [Compound D6b, 3-((4-(4-((3-Fluorophenoxy)methyl)benzamido)-3,5-dimethyl-1H-pyrazol-1-yl)methyl)-N-methylbenzamide] |
| 3.1 µM | 6.9 µM | – | – | – | – | – | – | CNC(=O)c1cccc(Cn2nc(C)c(NC(=O)c3ccc(COc4ccc(F)cc4)cc3)c2C)c1 [Compound D6c, 3-((4-(4-((4-Fluorophenoxy)methyl)benzamido)-3,5-dimethyl-1H-pyrazol-1-yl)methyl)-N-methylbenzamide] |
| 12 µM | 8.5 µM | – | – | – | – | – | – | CNC(=O)c1cccc(Cn2nc(C)c(NC(=O)c3ccc(COc4ccccc4C#N)cc3)c2C)c1 [Compound D7a, 3-((4-(4-((2-Cyanophenoxy)methyl)benzamido)-3,5-dimethyl-1H-pyrazol-1-yl)methyl)-N-methylbenzamide] |
| 5.6 µM | 22 µM | – | – | – | – | – | – | CNC(=O)c1cccc(Cn2nc(C)c(NC(=O)c3ccc(COc4ccc(C#N)cc4)cc3)c2C)c1 [Compound D7c, 3-((4-(4-((4-Cyanophenoxy)methyl)benzamido)-3,5-dimethyl-1H-pyrazol-1-yl)methyl)-N-methylbenzamide] |
| 10 µM | 0.44 µM | – | – | – | – | – | – | CNC(=O)c1cccc(Cn2nc(C)c(NC(=O)c3ccc(COc4ccccc4C(F)(F)F)cc3)c2C)c1 [Compound D9a, 3-((3,5-Dimethyl-4-(4-((2-(trifluoromethyl)phenoxy)methyl)benzamido)-1H-pyrazol-1-yl)methyl)-N-methylbenzamide] |
| 2.3 µM | 0.76 µM | – | – | – | – | – | – | CNC(=O)c1cccc(Cn2nc(C)c(NC(=O)c3ccc(COc4cccc(C(F)(F)F)c4)cc3)c2C)c1 [Compound D9b, 3-((3,5-Dimethyl-4-(4-((3-(trifluoromethyl)phenoxy)-methyl)benzamido)-1H-pyrazol-1-yl)methyl)-N-methylbenzamide] |
| 6.3 µM | – | —/96% | 0.783 h | 3.58 ×10⁻⁶ cm/s | 7.17 ×10⁻⁶ cm/s | 1.25 h | —/100% | CNC(=O)c1cccc(Cn2nc(C)c(NC(=O)c3ccc(COc4ccc(C(F)(F)F)cc4C)cc3)c2C)n1 [Compound E1b, 6-((3,5-Dimethyl-4-(4-((2-methyl-4-(trifluoromethyl)phenoxy)methyl)benzamido)-1H-pyrazol-1-yl)methyl)-N-methylpicolinamide] |
| 8.6 µM | – | —/100% | 1.37 h | – | – | 2.4 h | —/94% | CNC(=O)c1cncc(Cn2nc(C)c(NC(=O)c3ccc(COc4ccc(C(F)(F)F)cc4)cc3)c2C)c1 [Compound E3a, 5-((3,5-Dimethyl-4-(4-((4-(trifluoromethyl)phenoxy)methyl)benzamido)-1H-pyrazol-1-yl)methyl)-N-methylnicotinamide] |
| 7.6 µM | – | —/100% | 1.23 h | – | – | 2.32 h | —/98% | CNC(=O)c1cncc(Cn2nc(C)c(NC(=O)c3ccc(COc4ccc(C(F)(F)F)cc4C)cc3)c2C)c1 [Compound E3b, 5-((3,5-Dimethyl-4-(4-((2-methyl-4-(trifluoromethyl)phenoxy)methyl)benzamido)-1H-pyrazol-1-yl)methyl)-N-methylnicotinamide] |
| 13 µM | – | —/98% | 1.08 h | – | – | 2.52 h | —/97% | CNC(=O)c1ccnc(Cn2nc(C)c(NC(=O)c3ccc(COc4ccc(C(F)(F)F)cc4)cc3)c2C)c1 [Compound E4a, 2-((3,5-Dimethyl-4-(4-((4-(trifluoromethyl)phenoxy)methyl)benzamido)-1H-pyrazol-1-yl)methyl)-N-methylisonicotinamide] |
| 4.9 µM | – | —/99% | 0.95 h | – | – | 2.1 h | —/98% | CNC(=O)c1ccnc(Cn2nc(C)c(NC(=O)c3ccc(COc4ccc(C(F)(F)F)cc4C)cc3)c2C)c1 [Compound E4b, 2-((3,5-Dimethyl-4-(4-((2-methyl-4-(trifluoromethyl)phenoxy)methyl)benzamido)-1H-pyrazol-1-yl)methyl)-N-methylisonicotinamide] |
